According to patent US11414449B2, “Hydrated and anhydrous polymorphs of 2′-O- fucosyllactose and their production methods” (BASF SE, priority 2012, dated 2022):
Blank lines part the entries; values can stand above or below the compound they belong to.

Columns and labels:
Assay type in all cases: physicochemical
[1] = re-analysis of example batches after storage (KF, LOD)
Description: (§1) Determination of water content in the product based on a specific oxidation-reduction reaction between the water present in the sample and the Karl Fischer reagent.
(§2) About 200 mg of the 2′-FL were weighed into the appropriate container, the balance was set to zero and the substance transferred into the previously dehydrated cell. The empty container was placed on the pan of the balance to determine the exact value of the substance transferred into the cell. Set the measured weight into the formula: % H2O=V×T×F/PC
(§3) Gravimetric method with heating of the sample using a halogen lamp

[2] = stability studies of Polymorph A (accelerated and 25°C/60% RH): KF, loss on drying, XRPD after storage; details: 40°±2° C., 75±5% RH and 25°±2° C., 60±5% RH
Description: In particular Polymorph A, was subjected to studies of stability both accelerated at 40°±2° C.; 75±5% RH and at 25°±2° C., 60±5% RH.
In particular, the percentage of water takes values between 5% and 7%, preferably between 5.5% and 6.5%, still more preferably between 5.7% and 6.2% (See Table 1).
as §1, §3

[3] = accelerated stability of Polymorph A, water content by Karl-Fischer over time; details: accelerated stability (75 ± 5% RH)
Description: as §1, §2

KF after 6 months ([1]; after 6 months): 6.00%
LOD after 6 months (Method 2) ([1]; after 6 months, LOD Method 2): 2.17%
SMILES: C[C@@H]1OC(O[C@H]2[C@H](O[C@H]3[C@H](O)[C@@H](O)C(O)O[C@@H]3CO)O[C@H](CO)[C@H](O)[C@@H]2O)[C@@H](O)[C@H](O)[C@@H]1O (mixture of isomers) [Example 4, 2′-O-fucosyllactose]

KF after 2 months ([1]; after 2 months): 0.34%
SMILES: C[C@@H]1OC(O[C@H]2[C@H](O[C@H]3[C@H](O)[C@@H](O)C(O)O[C@@H]3CO)O[C@H](CO)[C@H](O)[C@@H]2O)[C@@H](O)[C@H](O)[C@@H]1O (mixture of isomers) [Example 19, 2′-O-fucosyllactose]

KF after 10 days in a petri dish ([1]; after 10 days in a petri dish): 0.67%
SMILES: C[C@@H]1OC(O[C@H]2[C@H](O[C@H]3[C@H](O)[C@@H](O)C(O)O[C@@H]3CO)O[C@H](CO)[C@H](O)[C@@H]2O)[C@@H](O)[C@H](O)[C@@H]1O (mixture of isomers) [Example 21, 2′-O-fucosyllactose]

humidity uptake in stability studies (KF trend) ([2]; 1-3 months): tends to adsorb humidity immediately
KF % ([3]; time 0 months): 4.2%
KF % ([3]; time 1 month): 6.0%
KF % ([3]; time 2 months): 6.0%
KF % ([3]; time 3 months): 5.7%
KF % ([3]; time 4 months): 5.9%
KF % ([3]; time 5 months): 6.0%
KF % ([3]; time 6 months): 6.0%
SMILES: C[C@@H]1OC(O[C@H]2[C@H](O[C@H]3[C@H](O)[C@@H](O)C(O)O[C@@H]3CO)O[C@H](CO)[C@H](O)[C@@H]2O)[C@@H](O)[C@H](O)[C@@H]1O (mixture of isomers) [Polymorph A, 2′-O-fucosyllactose]
XRPD spectrum of stored samples (crystal form retention) [2]: continues to show the characteristic peaks of Polymorph A
